Laboratory results: patent US20220152065A1, “METHOD OF BLOCKING OR AMELIORATING CYTOKINE RELEASE SYNDROME” (Rigel Pharmaceuticals, Inc., priority 2019, published 2022)

Experiments:
[1] = test system: Dendritic cells + T cells + CD3/CD28 beads (IL-6 production); experiment: CRS assay: IL6 ELISA of supernatant from dendritic cells + T cells + CD3/CD28 beads; format: cell-based; conditions: human PBMC-derived dendritic cells, 1 h compound pre-incubation, T cells with CD3/CD28 beads overnight; IL-6 in supernatant
[2] = test system: Dendritic cells + T cells + CD3/CD28 beads (IL-2 production); experiment: CRS assay: IL2 ELISA of supernatant from dendritic cells + T cells + CD3/CD28 beads; format: cell-based; conditions: human PBMC-derived dendritic cells, 1 h compound pre-incubation, T cells with CD3/CD28 beads overnight; IL-2 in supernatant
From the text: • 1. Human PBMC cells (PPA Research Group, Cat No. 15-00021) • 2. RPMI media 10% FBS • 3. GMCSF (Peprotech, Cat No. 300-03) and IL4 (Peprotech Cat No. 200-04) • 4. White clear bottom 96 well plates (Fisher, Cat No. 07-200-587, Corning #3903) • 5. Human IL-2 DuoSet ELISA (R&D Systems, Cat No. DY202) • 6. Human IL-6 DuoSet ELISA (R&D Systems, Cat No. DY206) • 7. Cell Titer Glo reagent (Promega, Cat No. G7573) • 8. Dynabeads Human T-Activator CD3/CD28 (Fisher, Cat No. 111.61D) • 9. Anti-human CD3 (BD Biosciences, Cat No. 555336) • 10. CD28, Clone CD28.2 (Beckman Coulter Inc. Cat No. IM1376) • 11. Recombinant Human IL-2 Protein (R&D Systems, Cat No. 202-IL-500)
Transfer human PBMC cells (400 million) obtained from the vendor into three T-175 flasks containing 16 ml RPMI media (10% FBS) and incubate for 2 h at 37° C. After 2 h, remove floating PBL and rinse cell twice with 10 ml of media. Save PBL and media for T cell expansion. Add 16 ml of fresh RPMI media (10% FBS) containing GMCSF (100 ng/ml) and IL4 (20 ng/ml) and keep the flask in 37° C. incubator. After 3 days, add fresh GMCSF (100 ng/ml) and IL4 (20 ng/ml) to the flask and continue the incubation.
• 1. […]
• 1. […] To the remaining 40 μl/well of the cell culture plate add 25 μl of Cell Titer Glo reagent, incubate for 1-2 minutes on a shaker and read the plate for luminescence intensity to determine the compound cytotoxicity. […]

[3] = target: Fc receptor signaling (degranulation); conditions: IgE- and IgG-mediated Fc receptor activation; cited from earlier work

IC50 [1]: 0.119 µM | IC50 [2]: 3.14 µM
Structure (SMILES): COc1cc(Nc2ncc(F)c(Nc3ccc4c(n3)NC(=O)C(C)(C)O4)n2)cc(OC)c1OC [Compound R406, 6-((5-fluoro-2-((3,4,5-trimethoxyphenyl)amino)pyrimidin-4-yl)amino)-2,2-dimethyl-2H-pyrido[3,2-b][1,4]oxazin-3(4H)-one]
EC50 [3]: 56 to 64 nM
